Experiments:
[1] = test system: RPE-Neo or RPE-MYC or RPE-MYC expressing an EGFP-Histone 2B fusion protein; experiment: Phenotypic screening assay (arrest in mitosis, change in DNA content, cell death; GE IN-Cell Analyzer 2000); format: cell-based; conditions: Homo sapiens, compounds 20 nM to 20 μM, 24, 48 or 72 hours
[2] = test system: RPE-Neo or RPE-MYC or RPE-MYC expressing an EGFP-Histone 2B fusion protein; experiment: MTT assays of cellular proliferation; format: cell-based; conditions: Homo sapiens, min. effective conc., read-out: Proliferative arrest (<50%)
[3] = read-out: Min. Effective conc. for Polyploidy (≥10%)
[4] = min. effective conc., read-out: Cell Death (>30%)
[5] = min. effective conc., read-out: Mitotic Arrest (≥10%)

| Compound | minimal effective concentration [1, 3] | minimal effective concentration [1, 4] | minimal effective concentration [1, 5] | minimal effective concentration [2] |
| --- | --- | --- | --- | --- |
| CNC(=O)C1=C(O)c2ccccc2N(Cc2ccc(C(F)(F)F)cc2)C(=O)C1 [Example 84, 5-hydroxy-N-methyl-2-oxo-1-(4-(trifluoromethyl)benzyl)-2,3-dihydro-1H-benzo[b]azepine-4-carboxamide] | 30 to 1000 µM | 30 to 1000 µM | 10 to 30 µM | 30 to 1000 µM |
| CNC(=O)C1=C(O)c2ccccc2N(Cc2ccc(C#N)cc2)C(=O)C1 [Example 85, 1-(4-cyanobenzyl)-5-hydroxy-N-methyl-2-oxo-2,3-dihydro-1H-benzo[b]azepine-4-carboxamide] | 30 to 1000 µM | 30 to 1000 µM | 30 to 1000 µM | 30 to 1000 µM |
| CCc1ccc(CN2C(=O)CC(C(=O)NC)=C(O)c3ccccc32)cc1 [Example 86, 1-(4-ethylbenzyl)-5-hydroxy-N-methyl-2-oxo-2,3-dihydro-1H-benzo[b]azepine-4-carboxamide] | 1 to 10 µM | 1 to 10 µM | 1 to 10 µM | 1 to 10 µM |
| CNC(=O)C1=C(O)c2ccccc2N(Cc2ccc(C(C)C)cc2)C(=O)C1 [Example 87, 5-hydroxy-1-(4-isopropylbenzyl)-N-methyl-2-oxo-2,3-dihydro-1H-benzo[b]azepine-4-carboxamide] | 30 to 1000 µM | 30 to 1000 µM | 30 to 1000 µM | 30 to 1000 µM |
| CCCCc1ccc(CN2C(=O)CC(C(=O)NC)=C(O)c3ccccc32)cc1 [Example 88] | 30 to 1000 µM | 30 to 1000 µM | 30 to 1000 µM | 30 to 1000 µM |
| CNC(=O)C1CC(=O)N(Cc2ccc(-c3ccccc3)cc2)c2ccccc2C1=O (centres unmarked) [Example 89, 1-([1,1′-biphenyl]-4-ylmethyl)-5-hydroxy-N-methyl-2-oxo-2,3-dihydro-1H-benzo[b]azepine-4-carboxamide] | 30 to 1000 µM | 30 to 1000 µM | 30 to 1000 µM | 30 to 1000 µM |
| CNC(=O)C1=C(O)c2ccccc2N(Cc2ccc(C(C)=O)cc2)C(=O)C1 [Example 90, 1-(4-acetylbenzyl)-5-hydroxy-N-methyl-2-oxo-2,3-dihydro-1H-benzo[b]azepine-4-carboxamide] | 30 to 1000 µM | 30 to 1000 µM | 30 to 1000 µM | 30 to 1000 µM |
| CNC(=O)C1=C(O)c2ccccc2N(Cc2ccc(OC)cc2)C(=O)C1 [Example 91, 5-hydroxy-1-(4-methoxybenzyl)-N-methyl-2-oxo-2,3-dihydro-1H-benzo[b]azepine-4-carboxamide] | 10 to 30 µM | 10 to 30 µM | 1 to 10 µM | 10 to 30 µM |
| CNC(=O)C1=C(O)c2ccccc2N(Cc2cccc(OC)c2)C(=O)C1 [Example 92, 5-hydroxy-1-(3-methoxybenzyl)-N-methyl-2-oxo-2,3-dihydro-1H-benzo[b]azepine-4-carboxamide] | 10 to 30 µM | 10 to 30 µM | 10 to 30 µM | 10 to 30 µM |
| CNC(=O)C1=C(O)c2ccccc2N(Cc2ccccc2OC)C(=O)C1 [Example 93, 5-hydroxy-1-(2-methoxybenzyl)-N-methyl-2-oxo-2,3-dihydro-1H-benzo[b]azepine-4-carboxamide] | 10 to 30 µM | 10 to 30 µM | 10 to 30 µM | 10 to 30 µM |
| CNC(=O)C1CC(=O)N(Cc2ccc(OC(F)F)cc2)c2ccccc2C1=O (centres unmarked) [Example 94, 1-(4-(difluoromethoxy)benzyl)-5-hydroxy-N-methyl-2-oxo-2,3-dihydro-1H-benzo[b]azepine-4-carboxamide] | 30 to 1000 µM | 30 to 1000 µM | 30 to 1000 µM | 30 to 1000 µM |
| CNC(=O)C1=C(O)c2ccccc2N(c2ccc(OC)c(F)c2)C(=O)C1 [Example 95, 1-(3-fluoro-4-methoxyphenyl)-5-hydroxy-N-methyl-2-oxo-2,3-dihydro-1H-benzo[b]azepine-4-carboxamide] | 10 to 30 µM | 10 to 30 µM | 1 to 10 µM | 10 to 30 µM |
| CNC(=O)C1=C(O)c2ccccc2N(CCc2ccc(OC)cc2)C(=O)C1 [Example 96, 5-hydroxy-1-(4-methoxyphenethyl)-N-methyl-2-oxo-2,3-dihydro-1H-benzo[b]azepine-4-carboxamide] | 30 to 1000 µM | 30 to 1000 µM | 30 to 1000 µM | 30 to 1000 µM |
| CNC(=O)C1=C(O)c2ccccc2N(Cc2cc(C)cc(C)c2)C(=O)C1 [Example 97, 1-(3,5-dimethylbenzyl)-5-hydroxy-N-methyl-2-oxo-2,3-dihydro-1H-benzo[b]azepine-4-carboxamide] | 1 to 10 µM | 1 to 10 µM | 1 to 10 µM | 1 to 10 µM |
| CNC(=O)C1=C(O)c2ccccc2N(Cc2cccc(C)c2C)C(=O)C1 [Example 98, 1-(2,3-dimethylbenzyl)-5-hydroxy-N-methyl-2-oxo-2,3-dihydro-1H-benzo[b]azepine-4-carboxamide] | 10 to 30 µM | 30 to 1000 µM | 10 to 30 µM | 30 to 1000 µM |
| CNC(=O)C1CC(=O)N(Cc2c(C)cccc2C)c2ccccc2C1=O (centres unmarked) [Example 99, 1-(2,6-dimethylbenzyl)-5-hydroxy-N-methyl-2-oxo-2,3-dihydro-1H-benzo[b]azepine-4-carboxamide] | 30 to 1000 µM | 30 to 1000 µM | 30 to 1000 µM | 30 to 1000 µM |
| CNC(=O)C1CC(=O)N(Cc2ccc(C)c(C)c2)c2ccccc2C1=O (centres unmarked) [Example 100, 1-(3,4-dimethylbenzyl)-5-hydroxy-N-methyl-2-oxo-2,3-dihydro-1H-benzo[b]azepine-4-carboxamide] | 1 to 10 µM | 1 to 10 µM | 1 to 10 µM | 1 to 10 µM |
| CNC(=O)C1CC(=O)N(Cc2ccc(C)cc2C)c2ccccc2C1=O (centres unmarked) [Example 101, 1-(2,4-dimethylbenzyl)-5-hydroxy-N-methyl-2-oxo-2,3-dihydro-1H-benzo[b]azepine-4-carboxamide] | 1 to 10 µM | 1 to 10 µM | 1 to 10 µM | 1 to 10 µM |
| CNC(=O)C1=C(O)c2ccccc2N(Cc2ccc(F)c(F)c2)C(=O)C1 [Example 102, 1-(3,4-difluorobenzyl)-5-hydroxy-N-methyl-2-oxo-2,3-dihydro-1H-benzo[b]azepine-4-carboxamide] | 30 to 1000 µM | 30 to 1000 µM | 30 to 1000 µM | 30 to 1000 µM |
| CNC(=O)C1=C(O)c2ccccc2N(Cc2cc(F)cc(F)c2)C(=O)C1 [Example 104, 1-(3,5-difluorobenzyl)-5-hydroxy-N-methyl-2-oxo-2,3-dihydro-1H-benzo[b]azepine-4-carboxamide] | 30 to 1000 µM | 30 to 1000 µM | 30 to 1000 µM | 30 to 1000 µM |
| CNC(=O)C1=C(O)c2ccccc2N(Cc2cc(F)c(F)c(F)c2)C(=O)C1 [Example 105, 5-hydroxy-N-methyl-2-oxo-1-(3,4,5-trifluorobenzyl)-2,3-dihydro-1H-benzo[b]azepine-4-carboxamide] | 30 to 1000 µM | 30 to 1000 µM | 30 to 1000 µM | 30 to 1000 µM |
| CNC(=O)C1=C(O)c2ccccc2N(Cc2cc(F)ccc2F)C(=O)C1 [Example 106, 1-(2,5-difluorobenzyl)-5-hydroxy-N-methyl-2-oxo-2,3-dihydro-1H-benzo[b]azepine-4-carboxamide] | 30 to 1000 µM | 30 to 1000 µM | 30 to 1000 µM | 30 to 1000 µM |
| CNC(=O)C1=C(O)c2ccccc2N(Cc2cccc(F)c2F)C(=O)C1 [Example 107, 1-(2,3-difluorobenzyl)-5-hydroxy-N-methyl-2-oxo-2,3-dihydro-1H-benzo[b]azepine-4-carboxamide] | 30 to 1000 µM | 30 to 1000 µM | 30 to 1000 µM | 30 to 1000 µM |
| CNC(=O)C1CC(=O)N(Cc2c(F)cccc2F)c2ccccc2C1=O (centres unmarked) [Example 108, 1-(2,6-difluorobenzyl)-5-hydroxy-N-methyl-2-oxo-2,3-dihydro-1H-benzo[b]azepine-4-carboxamide] | 30 to 1000 µM | 30 to 1000 µM | 30 to 1000 µM | 30 to 1000 µM |
| CNC(=O)C1=C(O)c2ccccc2N(Cc2ccc(F)c(C)c2)C(=O)C1 [Example 109, 1-(4-fluoro-3-methylbenzyl)-5-hydroxy-N-methyl-2-oxo-2,3-dihydro-1H-benzo[b]azepine-4-carboxamide] | 10 to 30 µM | 30 to 1000 µM | 10 to 30 µM | 30 to 1000 µM |
| CNC(=O)C1=C(O)c2ccccc2N(Cc2ccc(OC)c(F)c2)C(=O)C1 [Example 111, 1-(3-fluoro-4-methoxybenzyl)-5-hydroxy-N-methyl-2-oxo-2,3-dihydro-1H-benzo[b]azepine-4-carboxamide] | 1 to 10 µM | 1 to 10 µM | 1 to 10 µM | 1 to 10 µM |
